Data from PubChem BioAssay AID1963963 (Molecular Pharmacology Branch, DTP, NCI, 2024).

Test system: 958667-338-R-J2-PDC tumor spheroids viability
Assay: Anticancer human tumor 958667-338-R-J2-PDC patient-derived colon adenocarcinoma cell line growth inhibition [PI3K]
Settings: spheroids with HUVEC and MSC; for IC50: curve of first compound; for viability, T/C: stronger effect = lower value
Summary of the method: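 Spheroid viability read-out. Co-cultures contained the tumor line plus HUVEC and human MSCs. Each agent was paired with a PI3K inhibitor (inavolisib, alpelisib, duvelisib, copanlisib) across half-log dilutions starting at clinical Cmax, or at 10 microM when Cmax was unknown.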

[1] = second compound 0.0316 µM, first compound 0.0316 µM
[2] = second compound 0.0316 µM, first compound 0.1 µM
[3] = second compound 0.0316 µM, first compound 0.316 µM
[4] = second compound 0.0316 µM, first compound 1 µM
[5] = second compound 0.0316 µM, first compound 3.16 µM
[6] = second compound 0.0316 µM, first compound 10 µM
[7] = second compound 0.1 µM, first compound 0.0316 µM
[8] = second compound 0.1 µM, first compound 0.1 µM
[9] = second compound 0.1 µM, first compound 0.316 µM
[10] = second compound 0.1 µM, first compound 1 µM
[11] = second compound 0.1 µM, first compound 3.16 µM
[12] = second compound 0.1 µM, first compound 10 µM
[13] = second compound 0.316 µM, first compound 0.0316 µM
[14] = second compound 0.316 µM, first compound 0.1 µM
[15] = second compound 0.316 µM, first compound 0.316 µM
[16] = second compound 0.316 µM, first compound 1 µM
[17] = second compound 0.316 µM, first compound 3.16 µM
[18] = second compound 0.316 µM, first compound 10 µM
[19] = second compound 1 µM, first compound 0.0316 µM
[20] = second compound 1 µM, first compound 0.1 µM
[21] = second compound 1 µM, first compound 0.316 µM
[22] = second compound 1 µM, first compound 1 µM
[23] = second compound 1 µM, first compound 3.16 µM
[24] = second compound 1 µM, first compound 10 µM
[25] = second compound 3.16 µM, first compound 0.0316 µM
[26] = second compound 3.16 µM, first compound 0.1 µM
[27] = second compound 3.16 µM, first compound 0.316 µM
[28] = second compound 3.16 µM, first compound 1 µM
[29] = second compound 3.16 µM, first compound 3.16 µM
[30] = second compound 3.16 µM, first compound 10 µM
[31] = second compound 10 µM, first compound 0.0316 µM
[32] = second compound 10 µM, first compound 0.1 µM
[33] = second compound 10 µM, first compound 0.316 µM
[34] = second compound 10 µM, first compound 1 µM
[35] = second compound 10 µM, first compound 3.16 µM
[36] = second compound 10 µM, first compound 10 µM
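Note: spheroids exposed to compounds for seven days before readout.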

## C=CC(=O)N1CCN(c2nc(=O)n(-c3c(C)ccnc3C(C)C)c3nc(-c4c(O)cccc4F)c(F)cc23)C(C)C1 (stereo unspecified) + CC(Nc1ncnc2nc[nH]c12)c1cc2cccc(Cl)c2c(=O)n1-c1ccccc1
Second compound 0.0316 µM
  IC50: > 10 µM
Second compound 0.1 µM
  IC50: > 10 µM
Second compound 0.316 µM
  IC50: > 10 µM
Second compound 1 µM
  IC50: > 10 µM
Second compound 3.16 µM
  IC50: > 10 µM
Second compound 10 µM
  IC50: > 10 µM
[1]
  viability, T/C: 118%
[2]
  viability, T/C: 117%
[3]
  viability, T/C: 104%
[4]
  viability, T/C: 109%
[5]
  viability, T/C: 130%
[6]
  viability, T/C: 127%
[7]
  viability, T/C: 106%
[8]
  viability, T/C: 118%
[9]
  viability, T/C: 112%
[10]
  viability, T/C: 104%
[11]
  viability, T/C: 118%
[12]
  viability, T/C: 98%
[13]
  viability, T/C: 116%
[14]
  viability, T/C: 90.8%
[15]
  viability, T/C: 93.6%
[16]
  viability, T/C: 149%
[17]
  viability, T/C: 116%
[18]
  viability, T/C: 96.8%
[19]
  viability, T/C: 108%
[20]
  viability, T/C: 106%
[21]
  viability, T/C: 85.9%
[22]
  viability, T/C: 96.5%
[23]
  viability, T/C: 123%
[24]
  viability, T/C: 120%
[25]
  viability, T/C: 89.8%
[26]
  viability, T/C: 88.1%
[27]
  viability, T/C: 99.9%
[28]
  viability, T/C: 125%
[29]
  viability, T/C: 112%
[30]
  viability, T/C: 111%
[31]
  viability, T/C: 93.3%
[32]
  viability, T/C: 90.3%
[33]
  viability, T/C: 115%
[34]
  viability, T/C: 104%
[35]
  viability, T/C: 101%
[36]
  viability, T/C: 105%

## Cn1ncc(Cl)c1-c1cc(C(=O)NC(CN)Cc2cccc(F)c2)sc1Cl (stereo unspecified) + CC(Nc1ncnc2nc[nH]c12)c1cc2cccc(Cl)c2c(=O)n1-c1ccccc1
Second compound 0.0316 µM
  IC50: > 10 µM
Second compound 0.1 µM
  IC50: 4.38 µM
Second compound 0.316 µM
  IC50: 1.37 µM
Second compound 1 µM
  IC50: 3.2 µM
Second compound 3.16 µM
  IC50: 3.6 µM
Second compound 10 µM
  IC50: 1.84 µM
[1]
  viability, T/C: 87.7%
[2]
  viability, T/C: 87.1%
[3]
  viability, T/C: 100%
[4]
  viability, T/C: 60.6%
[5]
  viability, T/C: 60.5%
[6]
  viability, T/C: 43.4%
[7]
  viability, T/C: 111%
[8]
  viability, T/C: 81.1%
[9]
  viability, T/C: 84.7%
[10]
  viability, T/C: 64.1%
[11]
  viability, T/C: 59%
[12]
  viability, T/C: 37.5%
[13]
  viability, T/C: 93.7%
[14]
  viability, T/C: 89.9%
[15]
  viability, T/C: 82.1%
[16]
  viability, T/C: 50.7%
[17]
  viability, T/C: 52.2%
[18]
  viability, T/C: 37.2%
[19]
  viability, T/C: 95.6%
[20]
  viability, T/C: 87.3%
[21]
  viability, T/C: 97.1%
[22]
  viability, T/C: 75.9%
[23]
  viability, T/C: 51.4%
[24]
  viability, T/C: 39.4%
[25]
  viability, T/C: 88.4%
[26]
  viability, T/C: 89.1%
[27]
  viability, T/C: 85.8%
[28]
  viability, T/C: 79.7%
[29]
  viability, T/C: 52.1%
[30]
  viability, T/C: 32.6%
[31]
  viability, T/C: 82.3%
[32]
  viability, T/C: 82.3%
[33]
  viability, T/C: 65.9%
[34]
  viability, T/C: 59.4%
[35]
  viability, T/C: 42.9%
[36]
  viability, T/C: 28.2%

## Cn1nccc1Nc1nccc(-c2ccn(C(CO)c3ccc(Cl)c(F)c3)c(=O)c2)n1 (stereo unspecified) + CC(Nc1ncnc2nc[nH]c12)c1cc2cccc(Cl)c2c(=O)n1-c1ccccc1
Second compound 0.0316 µM
  IC50: > 10 µM
Second compound 0.1 µM
  IC50: > 10 µM
Second compound 0.316 µM
  IC50: > 10 µM
Second compound 1 µM
  IC50: > 10 µM
Second compound 3.16 µM
  IC50: > 10 µM
Second compound 10 µM
  IC50: 8.08 µM
[1]
  viability, T/C: 93.3%
[2]
  viability, T/C: 93.3%
[3]
  viability, T/C: 92.1%
[4]
  viability, T/C: 97.6%
[5]
  viability, T/C: 72.2%
[6]
  viability, T/C: 77.8%
[7]
  viability, T/C: 88%
[8]
  viability, T/C: 106%
[9]
  viability, T/C: 109%
[10]
  viability, T/C: 69.4%
[11]
  viability, T/C: 73.6%
[12]
  viability, T/C: 63.3%
[13]
  viability, T/C: 91.1%
[14]
  viability, T/C: 105%
[15]
  viability, T/C: 80.6%
[16]
  viability, T/C: 106%
[17]
  viability, T/C: 76.3%
[18]
  viability, T/C: 60.1%
[19]
  viability, T/C: 93.9%
[20]
  viability, T/C: 87%
[21]
  viability, T/C: 82.7%
[22]
  viability, T/C: 89.6%
[23]
  viability, T/C: 83.5%
[24]
  viability, T/C: 50.7%
[25]
  viability, T/C: 82.9%
[26]
  viability, T/C: 79.9%
[27]
  viability, T/C: 68.3%
[28]
  viability, T/C: 75.4%
[29]
  viability, T/C: 66.8%
[30]
  viability, T/C: 51.4%
[31]
  viability, T/C: 94%
[32]
  viability, T/C: 94.2%
[33]
  viability, T/C: 67.3%
[34]
  viability, T/C: 87.6%
[35]
  viability, T/C: 66.3%
[36]
  viability, T/C: 44.9%
